Results as given in patent US7763615B2, “Ecteinascidin analogs for use as antitumour agents” (priority 2001, dated 2010).
Read-outs that look alike come from different tables or passages of the source.

Experiments:
Assay in all cases: cells
Assay type in all cases: cell-based
PANC-1 = conditions: Homo sapiens
In short: (§1)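 Human tumour cells seeded at 5×10^3 per well in RPMI 1640 10% FBS, attached 18 h, then exposed 48 h to samples from 10 to 10^−8 μg/ml in DMSO/EtOH/PBS. Growth measured by SRB staining after TCA fixation, OD 490 nm, triplicate wells; GI, TGI and LC derived.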

LOVO-DOX = conditions: Homo sapiens
In short: as §1

LNCAP = conditions: Homo sapiens
In short: as §1

IGROV-ET = conditions: Homo sapiens
In short: as §1

SK-BR3 = conditions: Homo sapiens
In short: as §1

HELA-APL = conditions: for GI50 / CC50: Homo sapiens
In short: as §1

HT29 = system: HT29
In short: as §1

LOVO = conditions: Homo sapiens
In short: as §1

K562 = conditions: Homo sapiens
In short: as §1

MEL-28 = conditions: Homo sapiens
In short: as §1

A549 = conditions: for GI50: read-out: GI50; for IC (TGI): read-out: TGI
In short: as §1

IGROV = conditions: Homo sapiens
In short: as §1

HELA = conditions: for GI50 / CC50: Homo sapiens
In short: as §1

DU145 = conditions: Homo sapiens
In short: as §1

[1] = PANC-1, 48 h, PANC-1, 48 hours exposure, SRB
[2] = PANC-1, 48 hours exposure, SRB, read-out: LC50 (the source's name)
[3] = 48 h, LOVO-DOX, 48 hours exposure, SRB
[4] = LOVO-DOX, 48 hours exposure, SRB, read-out: LC50 (the source's name)
[5] = LNCaP, 48 h, 48 hours exposure, SRB
[6] = LNCAP, 48 hours exposure, SRB, read-out: LC50 (the source's name)
[7] = 48 h, IGROV-ET, 48 hours exposure, SRB
[8] = IGROV-ET, 48 hours exposure, SRB, read-out: LC50 (the source's name)
[9] = SK-BR-3, 48 h, SK-BR3, 48 hours exposure, SRB
[10] = SK-BR-3, SK-BR3, 48 hours exposure, SRB, read-out: LC50 (the source's name)
[11] = HELA-APL, 48 hours exposure, SRB
[12] = HELA-APL, 48 hours exposure, SRB, read-out: LC50 (the source's name)
[13] = LoVo, 48 h, 48 hours exposure, SRB
[14] = LOVO, 48 hours exposure, SRB, read-out: LC50 (the source's name)
[15] = K562, 48 h, K562, 48 hours exposure, SRB
[16] = K562, 48 hours exposure, SRB, read-out: LC50 (the source's name)
[17] = SK-MEL-28, 48 h, MEL-28, 48 hours exposure, SRB
[18] = SK-MEL-28, MEL-28, 48 hours exposure, SRB, read-out: LC50 (the source's name)
[19] = 48 hours exposure, SRB, read-out: LC50 (the source's name)
[20] = HELA, 48 hours exposure, SRB, read-out: LC50 (the source's name)
[21] = DU-145, 48 h, DU145, 48 hours exposure, SRB
[22] = DU-145, DU145, 48 hours exposure, SRB, read-out: LC50 (the source's name)
[23] = Homo sapiens, HT-29, 48 h, HT29, 48 hours exposure, SRB
[24] = Homo sapiens, A549, 48 h, A549, 48 hours exposure, SRB

SMILES: COc1c(C)cc2c(c1O)[C@@H]1C3[C@@H]4SC[C@]5(C(=O)COC[C@@H](c6c7c(c(C)c(OC(C)=O)c64)OCO7)N3[C@@H](C#N)[C@H](C2)N1C)c1[nH]c2ccccc2c1CCN5C (stereo partly drawn) [Compound 14]
- GI50 (PANC-1; [1]): 276 nM
- IC (TGI) (PANC-1; [1]): 0.825 µM
- CC50 (PANC-1; [2]): 12.9 µM
- GI50 (LOVO-DOX; [3]): 584 nM
- IC (TGI) (LOVO-DOX; [3]): 3.84 µM
- CC50 (LOVO-DOX; [4]): 12.9 µM
- GI50 (LNCAP; [5]): 61.2 nM
- IC (TGI) (LNCAP; [5]): 0.177 µM
- CC50 (LNCAP; [6]): 535 nM
- GI50 (IGROV-ET; [7]): 569 nM
- IC (TGI) (IGROV-ET; [7]): 1.3 µM
- CC50 (IGROV-ET; [8]): 12.9 µM
- GI50 (SK-BR3; [9]): 217 nM
- IC (TGI) (SK-BR3; [9]): 0.537 µM
- CC50 (SK-BR3; [10]): 1.62 µM
- TGI (HELA-APL; [11]): 4.88E−07 Molar
- GI50 (HELA-APL; 48 h): 243 nM
- CC50 (HELA-APL; [12]): 980 nM
- GI50 (HT29; HT29, 48 hours exposure, SRB): 418 nM
- TGI (HT29; HT29, 48 hours exposure, SRB): 1.59E−06 Molar
- CC50 (HT29; HT29, 48 hours exposure, SRB, read-out: LC50 (the source's name)): 12.9 µM
- GI50 (LOVO; [13]): 141 nM
- IC (TGI) (LOVO; [13]): 0.393 µM
- CC50 (LOVO; [14]): 1100 nM
- GI50 (K562; [15]): 44.7 nM
- IC (TGI) (K562; [15]): 0.174 µM
- CC50 (K562; [16]): 1290 nM
- GI50 (MEL-28; [17]): 198 nM
- IC (TGI) (MEL-28; [17]): 0.519 µM
- CC50 (MEL-28; [18]): 2370 nM
- TGI (A549; A549, 48 hours exposure, SRB): 8.25E−07 Molar
- GI50 (A549; A549, 48 hours exposure, SRB): 264 nM
- CC50 (A549; A549, 48 hours exposure, SRB, read-out: LC50 (the source's name)): 6.86 µM
- GI50 (IGROV; 48 h, 48 hours exposure, SRB): 226 nM
- IC (TGI) (IGROV; 48 h, 48 hours exposure, SRB): 0.744 µM
- CC50 (IGROV; [19]): 5.14 µM
- TGI (HELA; HELA, 48 hours exposure, SRB): 3.10E−07 Molar
- GI50 (HELA; HELA, 48 hours exposure, SRB): 114 nM
- CC50 (HELA; [20]): 810 nM
- GI50 (DU145; [21]): 94.6 nM
- IC (TGI) (DU145; [21]): 1.39 µM
- CC50 (DU145; [22]): 12.9 µM

SMILES: COc1c(C)cc2c(c1O)[C@@H]1C3[C@@H]4SC[C@]5(NCCc6c5[nH]c5ccccc65)C(=O)COC[C@@H](c5c6c(c(C)c(OC(=O)C(F)(F)C(F)(F)C(F)(F)F)c54)OCO6)N3[C@@H](C#N)[C@H](C2)N1C (stereo partly drawn) [Compound 51]
- GI50 (PANC-1; [1]): 41.9 nM
- IC (TGI) (PANC-1; [1]): 0.133 µM
- CC50 (PANC-1; PANC-1, 48 h, read-out: LC50): 2 µM
- GI50 (LOVO-DOX; [3]): 381 nM
- IC (TGI) (LOVO-DOX; [3]): 3.09 µM
- CC50 (LOVO-DOX; 48 h, read-out: LC50): 11.2 µM
- GI50 (LNCAP; [5]): 13.1 nM
- IC (TGI) (LNCAP; [5]): 0.027 µM
- CC50 (LNCAP; LNCaP, 48 h, read-out: LC50): 54.8 nM
- GI50 (IGROV-ET; [7]): 263 nM
- IC (TGI) (IGROV-ET; [7]): 7.47 µM
- CC50 (IGROV-ET; 48 h, read-out: LC50): 11.2 µM
- GI50 (SK-BR3; [9]): 39.8 nM
- IC (TGI) (SK-BR3; [9]): 0.0993 µM
- CC50 (SK-BR3; SK-BR-3, 48 h, read-out: LC50): 3.11 µM
- TGI (HELA-APL; [11]): 4.97E−08 Molar
- GI50 (HELA-APL; 48 h): 29.1 nM
- CC50 (HELA-APL; 48 h, read-out: LC50): 84.6 nM
- GI50 (HT29; [23]): 38.2 nM
- IC (TGI) (HT29; [23]): 1.31 µM
- CC50 (HT29; Homo sapiens, HT-29, 48 h, read-out: LC50, HT29, 48 hours exposure, SRB): 11.1 µM
- GI50 (LOVO; [13]): 21.1 nM
- IC (TGI) (LOVO; [13]): 0.0388 µM
- CC50 (LOVO; LoVo, 48 h, read-out: LC50): 71 nM
- GI50 (K562; [15]): 16.5 nM
- IC (TGI) (K562; [15]): 0.0462 µM
- CC50 (K562; K562, 48 h, read-out: LC50): 114 nM
- GI50 (MEL-28; [17]): 28.4 nM
- IC (TGI) (MEL-28; [17]): 0.0503 µM
- CC50 (MEL-28; SK-MEL-28, 48 h, read-out: LC50): 89.3 nM
- GI50 (A549; [24]): 26.7 nM
- IC (TGI) (A549; [24]): 0.0611 µM
- CC50 (A549; Homo sapiens, A549, 48 h, read-out: LC50, A549, 48 hours exposure, SRB): 1.29 µM
- GI50 (IGROV; 48 h, 48 hours exposure, SRB): 32.3 nM
- IC (TGI) (IGROV; 48 h, 48 hours exposure, SRB): 0.0633 µM
- CC50 (IGROV; 48 h, read-out: LC50): 3.55 µM
- TGI (HELA; HELA, 48 hours exposure, SRB): 4.85E−08 Molar
- CC50 (HELA; HeLa, 48 h, read-out: LC50): 98 nM
- GI50 (HELA; HELA, 48 hours exposure, SRB): 24 nM
- GI50 (DU145; [21]): 48.3 nM
- IC (TGI) (DU145; [21]): 0.323 µM
- CC50 (DU145; DU-145, 48 h, read-out: LC50): 11.2 µM

SMILES: COc1c(C)cc2c(c1O)[C@@H]1C3[C@@H]4SC[C@]5(NCCc6c5[nH]c5ccccc65)C(=O)COC[C@@H](c5c6c(c(C)c(OC(=O)OC(C)(C)C)c54)OCO6)N3[C@@H](C#N)[C@H](C2)N1C (stereo partly drawn) [Compound 57]
- GI50 (PANC-1; [1]): 113 nM
- IC (TGI) (PANC-1; [1]): 0.662 µM
- CC50 (PANC-1; [2]): 12.2 µM
- GI50 (LOVO-DOX; [3]): 487 nM
- IC (TGI) (LOVO-DOX; [3]): 6.7 µM
- CC50 (LOVO-DOX; [4]): 12.2 µM
- GI50 (LNCAP; [5]): 33.3 nM
- IC (TGI) (LNCAP; [5]): 0.0717 µM
- CC50 (LNCAP; [6]): 23.2 nM
- GI50 (IGROV-ET; [7]): 394 nM
- IC (TGI) (IGROV-ET; [7]): 1.15 µM
- CC50 (IGROV-ET; [8]): 12.2 µM
- GI50 (SK-BR3; [9]): 67.6 nM
- IC (TGI) (SK-BR3; [9]): 0.313 µM
- CC50 (SK-BR3; [10]): 7.99 µM
- TGI (HELA-APL; [11]): 2.03E−07 Molar
- GI50 (HELA-APL; 48 h): 61.4 nM
- CC50 (HELA-APL; [12]): 850 nM
- GI50 (HT29; [23]): 165 nM
- IC (TGI) (HT29; [23]): 1.41 µM
- CC50 (HT29; Homo sapiens, HT-29, 48 h, HT29, 48 hours exposure, SRB, read-out: LC50 (the source's name)): 12.2 µM
- GI50 (LOVO; [13]): 73 nM
- IC (TGI) (LOVO; [13]): 0.257 µM
- CC50 (LOVO; [14]): 905 nM
- GI50 (K562; [15]): 47.7 nM
- IC (TGI) (K562; [15]): 0.466 µM
- CC50 (K562; [16]): 12200 nM
- GI50 (MEL-28; [17]): 64.7 nM
- IC (TGI) (MEL-28; [17]): 0.209 µM
- CC50 (MEL-28; [18]): 662 nM
- GI50 (A549; [24]): 103 nM
- CC50 (A549; Homo sapiens, A549, 48 h, A549, 48 hours exposure, SRB, read-out: LC50 (the source's name)): 12.2 µM
- IC (TGI) (A549; [24]): 0.607 µM
- GI50 (IGROV; 48 h, 48 hours exposure, SRB): 71.8 nM
- IC (TGI) (IGROV; 48 h, 48 hours exposure, SRB): 0.46 µM
- CC50 (IGROV; [19]): 7.43 µM
- TGI (HELA; HELA, 48 hours exposure, SRB): 1.46E−07 Molar
- GI50 (HELA; HELA, 48 hours exposure, SRB): 43.7 nM
- CC50 (HELA; [20]): 652 nM
- GI50 (DU145; [21]): 47.7 nM
- IC (TGI) (DU145; [21]): 1.84 µM
- CC50 (DU145; [22]): 12.2 µM
